Laboratory results reported in patent US11883398B2, “Dipeptidylpeptidase 4 inhibition enhances lymphocyte trafficking, improving both naturally occurring tumor immunity and immunotherapy” (INSTITUT PASTEUR, priority 2015, dated 2024).

Assays:
DPP9 = DPP9 (Homo sapiens, UniProt Q86TI2); conditions: Verspohl 2012; Huan et al. 2015; cited from earlier work
B16F10 melanoma = assay: Subcutaneous B16F10 melanoma tumor growth in vivo; parameters: species or system mouse
Procedure: Mice used were 7-12 weeks old. […] B16F10 and […] (Ovalbumin-expressing B16F10 cells, gift from C. Reis e Sousa) tumor cells were cultured in DMEM (Gibco) supplemented with 10% FCS (PAA), 0.1 mM non-essential amino acids, 1 mM sodium pyruvate, 10 mM Hepes, 70 μM beta-mercaptoethanol and 23 μg/ml gentamycin (all from Gibco). CT26 colon carcinoma cells were cultured in RPMI (Gibco) supplemented as described for DMEM. Cells for injections were passaged 1-2 times after thawing, before use. WT and genetically modified mice were subcutaneously injected with 2×10^5 B16 or 5×10^5 CT26 cells in the shaved right flank. […] For blocking of chemokine and chemokine receptors, WT mice were intraperitoneally injected with 100 μg of hamster a-mCXCR3 (clone CXCR3-173, BioLegend), 100 μg of hamster α-mCCR5 (clone HM-CCR5, BioLegend), 50 μg of rat anti-mCXCL10 (clone 134013, R&D systems) and 20 μg of rat-α-mCXCR4 (clone 2B11/CXCR4, BD Biosciences) or with respective isotype antibodies (hamster IgG (clone HTK888, BioLegend, used as control for mCXCR3 and mCCR5 blockage); rat IgG2a (clone 54447, R&D systems, used as control for mCXCL10 blockade) and rat IgG2b (clone A95-1, BD Biosciences, used as control for mCXCR4 blockade). […] For CXCL10 neutralization, antibodies were injected on day 2, 5, 8 and 11 after tumor cell injection. For immunotherapy protocols, mice were intraperitoneally injected with 100 μg of mouse α-CTLA-4 (clone 9D9, Bioxcell), 200 μg of PD1 (clone RMP1-14, Bioxcell), a combination of 100 μg of α-CTLA-4+200 μg of a-PD1 or control isotypes (100 μg […] and 200 μg rat IgG2a (clone 2A3), both from Bioxcell) on day 3, 6 and 9 after tumor cell implantation. For adoptive cell transfer experiments, Pmel-1 Thy-1.1^+Thy-1.1^+, Cxcr3^-/- Thy-1.1^+Thy-1.2^+ Pmel-1 or OT1 splenocytes were activated ex-vivo, by incubation with 1 nM of human gp100 (for Pmel-1 cells) or […] (for OT1 cells) peptides for 1h at room temperature with agitation. Splenocytes were then washed and resuspended in R10 supplemented with 30U/mL of recombinant human IL-2. CD8^+ T cells were expanded for 6-7 days before used. […] For analysis of tumor growth, activated OT1 cells were injected intravenously (1×10^5 cells per mouse) into gender matched tumor-bearing mice, 3 days after tumor cell injection. Tumor height and width were measured with a caliper and tumor volume was calculated (Elliptical volume=width^2×height×0.523). […] Lungs with more than 100 metastatic nodules were defined as 100.

DPP9, sequence (Q86TI2 whole entry, species assumed): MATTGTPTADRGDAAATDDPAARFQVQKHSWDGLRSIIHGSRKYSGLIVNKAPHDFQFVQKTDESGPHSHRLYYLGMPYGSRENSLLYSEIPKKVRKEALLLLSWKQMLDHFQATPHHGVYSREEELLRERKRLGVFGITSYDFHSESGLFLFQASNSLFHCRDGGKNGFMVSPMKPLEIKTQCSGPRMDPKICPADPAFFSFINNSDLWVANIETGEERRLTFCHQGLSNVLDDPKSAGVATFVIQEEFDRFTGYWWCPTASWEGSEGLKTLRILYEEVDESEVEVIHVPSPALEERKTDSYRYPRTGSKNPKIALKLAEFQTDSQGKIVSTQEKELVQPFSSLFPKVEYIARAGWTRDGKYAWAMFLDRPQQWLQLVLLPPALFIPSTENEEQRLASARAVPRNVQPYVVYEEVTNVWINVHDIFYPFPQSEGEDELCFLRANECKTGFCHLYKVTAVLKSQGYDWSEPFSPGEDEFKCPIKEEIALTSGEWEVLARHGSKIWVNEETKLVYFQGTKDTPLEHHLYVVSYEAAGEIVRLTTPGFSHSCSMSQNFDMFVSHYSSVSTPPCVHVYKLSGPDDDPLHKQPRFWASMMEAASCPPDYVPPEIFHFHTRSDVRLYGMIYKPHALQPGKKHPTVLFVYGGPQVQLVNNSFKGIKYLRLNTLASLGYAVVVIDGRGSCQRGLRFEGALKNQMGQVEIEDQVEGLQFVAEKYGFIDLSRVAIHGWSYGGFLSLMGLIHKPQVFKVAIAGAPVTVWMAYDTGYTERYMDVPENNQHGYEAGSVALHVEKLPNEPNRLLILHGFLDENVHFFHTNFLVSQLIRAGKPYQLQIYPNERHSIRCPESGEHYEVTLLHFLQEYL

SMILES: N[C@@H](CC(=O)N1CCn2c(nnc2C(F)(F)F)C1)Cc1cc(F)c(F)cc1F [sitagliptin]
- effect on DPP9 activity (DPP9): no effect
- B16F10 tumor growth in Cxcl10-/- mice (B16F10 melanoma; Cxcl10-/- mice, sitagliptin vs control): the delayed tumor growth achieved by DPP4 inhibition was absent
- B16F10 tumor growth in Cxcr3-/- mice (B16F10 melanoma; Cxcr3-/- mice, sitagliptin vs control): abrogated the delayed tumor growth
- B16F10 tumor growth in Dpp4-/- mice (B16F10 melanoma; Dpp4-/- mice, sitagliptin vs control chow): did not influence the kinetics of melanoma growth
- B16F10 tumor growth in Rag2-/- mice (B16F10 melanoma; Rag2-/- mice, sitagliptin vs control): the beneficial effects of DPP4 inhibition were lost
- B16F10 tumor growth (B16F10 melanoma; WT mice, sitagliptin vs control chow): reduced tumor growth
- B16F10 tumor growth with CXCR4 blocking in vivo (B16F10 melanoma; anti-mCXCR4 antibody, sitagliptin vs control): did not impact sitagliptin-mediated inhibition of tumor growth
- B16F10 tumor growth in wild-type animals treated with CXCL10 blocking antibodies (B16F10 melanoma; loss of sitagliptin effect as in Cxcl10-/- mice): confirmed
- growth of established B16F10 tumors (B16F10 melanoma; sitagliptin chow started 3, 5 or 7 days after tumor implantation): delay in tumor growth if sitagliptin was administrated within 5 days after tumor cell implantation
